Measurements from PMC6988309, “Preclinical efficacy for a novel tyrosine kinase inhibitor, ArQule 531 against acute myeloid leukemia” (Journal of Hematology & Oncology, 2020).
Values joined by “and” are separate entries in the source; they are usually repeats but may differ in a detail not shown here. Identical values can stand only once. Like-named read-outs stand apart in the source and are kept apart here.

Tests used:
[1] = system: Ba/F3 FLT3-ITD/D835H; experiment: MTT proliferation assay 72 h, Ba/F3 FLT3-ITD/D835H; format: cell-based, murine; conditions: Mus musculus, BaF3, read-out: Estimated absolute µM IC50 and 95% CI
Procedure: (§1) For the MOLM-13 resistant and the Ba/F3-FLT3-ITD/TKD cell lines, cells were treated for 72 h and cell viability was evaluated using MTT assay (Roche Diagnostics. Mannheim. Germany) according to the manufacturer’s instructions.

[2] = system: Ba/F3 FLT3-ITD Parental
Procedure: (§2) CellTiter 96 Aqueous MTS reagent (Promega, Madison, WI) was added to cells followed by a 3-h incubation at 37 °C, 5% CO2. The absorbance was measured at 490 nm using DTX 880 plate reader and the half maximal inhibitory concentration (IC50) was calculated using GraphPad Prism 7 (GraphPad Software, La Jolla, CA) and SAS/STAT software (SAS v9.4 for Windows, SAS Institute, Inc., Cary, NC).

[3] = system: Ba/F3 FLT3-D835Y; experiment: MTT proliferation assay 72 h, Ba/F3 FLT3-D835Y; format: cell-based, murine; conditions: Mus musculus, BaF3, read-out: Estimated absolute µM IC50 and 95% CI
Procedure: as §1

[4] = set-up: method as in PMID 30093506; conditions: cynomolgus monkeys, cited from earlier work
[5] = system: MOLM13; experiment: MTT proliferation assay 72 h, parental MOLM13; format: cell-based, human
Procedure: (§3) A total of 5000–30,000 cells from the lines above were treated in a 96-well plate for 72 h. CellTiter 96 Aqueous MTS reagent (Promega, Madison, WI) was added to cells followed by a 3-h incubation at 37 °C, 5% CO2. The absorbance was measured at 490 nm using DTX 880 plate reader and the half maximal inhibitory concentration (IC50) was calculated using GraphPad Prism 7 (GraphPad Software, La Jolla, CA) and SAS/STAT software (SAS v9.4 for Windows, SAS Institute, Inc., Cary, NC). For the MOLM-13 resistant and the Ba/F3-FLT3-ITD/TKD cell lines, cells were treated for 72 h and cell viability was evaluated using MTT assay (Roche Diagnostics. Mannheim. Germany) according to the manufacturer’s instructions.

[6] = system: THP-1; experiment: MTS proliferation assay 72 h, THP-1; format: cell-based, human
Procedure: as §3

[7] = system: MCL1; experiment: Immunoblot of MCL1 modulation in MOLM-13; format: cell-based, human; conditions: MOLM-13, serum starved, 20 h treatment
Procedure: Fig. 6 Immunoblot analysis for MCL1 modulation in MOLM-13 FLT3-ITD cell line (representative of two independent blots). Cells were serum starved and treated for 20 h with ARQ 531 alone or in combination with venetoclax. […] GAPDH used as loading control. Band densitometry is done using ImageJ and quantified relative to GAPDH and DMSO treatment (a). In vitro analysis for additive or synergistic activity for ARQ 531 and venetoclax combination. Representative of three MTS proliferation assays. The MOLM-13 cell line was treated with increasing doses of ARQ 531 or venetoclax single agents or a combination of both for 72 h. Three biological replicates were analyzed using Combenefit software implementing the mathematical models for Highest Single Agent (HSA), Loewe, and Bliss (b). […]

[8] = system: Ba/F3 FLT3-ITD pMIT SYK-TEL
Procedure: as §2

[9] = Toxicity in xenograft mouse studies; format: in vivo; conditions: xenograft mice, 50 mg/kg daily oral
Procedure: All experiments were conducted after approval of The Ohio State University Institutional Animal Care and Use Committee. Mice were randomized and enrolled for daily oral gavage (Q.D.P.O) treatment of vehicle or 50 mg/kg ARQ 531. Mice were treated until reaching early removal criteria (ERC) defined as 20% weight loss, lethargy, hind limb paralysis, moribund, anorexia, dehydration, hunched posture, severe diarrhea, breathing difficulties, or any abnormal neurological symptoms.

[10] = system: Ba/F3 FLT3-ITD/F691L; experiment: MTT proliferation assay 72 h, Ba/F3 FLT3-ITD/F691L; format: cell-based, murine; conditions: Mus musculus, BaF3, read-out: Estimated absolute µM IC50 and 95% CI
Procedure: as §1

[11] = system: MOLM13-Res; experiment: MTT proliferation assay 72 h, MOLM13-Res (D835Y); format: cell-based, human
Description: As one of the main resistance mechanisms to FLT3 inhibitors is the acquisition of TKD mutations, we tested the anti-proliferative activity of ARQ 531 in the MOLM-13 TKI-resistant (MOLM13-Res) cell line previously described in Zimmerman et al.. In this model, MOLM-13 cells have gained a D835Y mutation via continuous exposure to the FLT3 inhibitor tandutinib.

[12] = system: Ba/F3 GFP+IL3; experiment: MTT proliferation assay 72 h, Ba/F3 GFP+IL3; format: cell-based, murine
Procedure: as §3

[13] = system: U937; experiment: MTS proliferation assay 72 h, U937; format: cell-based, human
Procedure: as §3

Structure (SMILES): O=C(c1ccc(Oc2ccccc2)cc1Cl)c1c[nH]c2ncnc(N[C@@H]3CC[C@@H](CO)OC3)c12 [ARQ 531]
- IC50 [1]: 3.76 µM
- IC50 [2]: 2.71 µM and 2.53 µM
- IC50 [3]: 6.11 µM
- plasma half-life (t1/2) ([4]; not calculated due to absence of elimination phase): long plasma half-life
- Tmax ([4]; single 10 mg/kg oral dose): ≤ 6 h
- oral bioavailability ([4]; single 10 mg/kg oral dose): 72%
- share of peak concentration present at 24 h ([4]; single 10 mg/kg oral dose): 75%
- Cmax ([4]; single 10 mg/kg oral dose, read-out: maximum concentration (Cmax)): 9 µM
- IC50 ([5]; Homo sapiens, MOLM-13, 72 h, read-out: Estimated absolute µM IC50 and 95% CI, MTT, 72 h): 1.33 µM
- IC50 ([5]; read-out: Estimated absolute µM IC50 and 95% CI, MTT, 72 h): 1.3 µM
- resistant to concentrations up to [6]: > 10 µM
- Estimated absolute µM IC50 (95% CI) ([6]; 4-parameter logistic model): Unable to calculate IC50
- MCL1 protein level [7]: MCL1 downregulation
- IC50 [8]: 11 µM and 5.94 µM and 6.61 µM
- toxicity [9]: lack of toxicity
- IC50 [10]: 7.12 µM
- IC50 ([11]; Homo sapiens, read-out: Estimated absolute µM IC50 and 95% CI, MTT, 72 h): 3.42 µM
- IC50 ([11]; read-out: Estimated absolute µM IC50 and 95% CI, MTT): 3.4 µM
- Estimated absolute µM IC50 and 95% CI [12]: Unable to calculate IC50
- resistant to concentrations up to [13]: > 10 µM
- Estimated absolute µM IC50 (95% CI) ([13]; 4-parameter logistic model): Unable to calculate IC50
